Measurements as given in patent US10238688B2, “Combination therapies for bladder cancer” (GENEDIA BIOTECH CO. LTD., priority 2015, dated 2019).

Assays:
Format in all cases: cell-based, human
H-bc = experiment: MTT cell survival / IC50, H-bc cells; conditions: for Cell survival 72 hours / ACS (%): H-bc cells; for Cell survival 72 hours: Table 4 (A); for ACS (%): Table 4 (B); for Cell survival (%) / Single drug 4X Cell Survival (%): H-bc; for Cell survival (%): Table S3, ng/ml: Pi 40, Pa 160, EH 250, Ci 1500, Mi 200, 1=Ci/Mi, 2=EH/Ci/Mi, 3=Pa/Ci/Mi, 4=Pi/Ci/Mi; for Single drug 4X Cell Survival (%): ng/ml: EH 1000, Ci 6000, Mi 800, Pi 160, Pa 640, Ge 20, EH/Ci/Mi regimen
Protocol: (§1) The clinical grade of the chemotherapeutics (NCI Dictionary of Cancer Terms) was provided by the First Affiliated Hospital of Harbin Medical University: Pirarubicin (Pi, Wanle, Shenzhen), Paclitaxel (Pa, Taiji, Sichuan), Adriamycin (Ad, Pfizer, Jiangsu), Epirubicin Hydrochloride (EH, Haizheng, Zhejiang), Hydroxycamptothecin (Hy, Lishizhen, Hubei), Cisplatin (Ci, Haosen, Jiangsu), Gemcitabine (Ge, Haosen, Jiangsu) and Mitomycin (Mi, Haizheng, Zhejiang). The drug induced cell death was determined by a thiazolyl […] (MTT, 490 nm reading) based cell proliferation assay in the cultured cells following treatment by various concentrations of drugs for 72 hours. The relative chemoresistance to each drug of all cell lines was calculated with the lowest IC50 as a reference. The overall chemoresistance of each cell line was described as “chemoresistance index”, the numerator of the total relative IC50 to all the drugs over the number of drugs to rank the overall resistance state of each cell line to the six chemotherapeutics collectively.
(§2) The relative IC50 (fold) of each drug of all nine cell lines was normalized to the lowest IC50 in the most sensitive cell line (FIG. 2G), to describe the single drug resistance of cell lines. The overall chemoresistance of each cell line, a “chemoresistance index” (the numerator of the total relative IC50 over the number of drugs) (FIG. 2G) were calculated to rank the overall resistance state of each cell line to this six chemotherapeutics.
(§3) Twenty six-drug combinations at the indicated doses were initially generated through a random number generator (using MATLAB MathWorks©, Natick, Mass., U.S.) (The upper half of Table 1). The cell survival (% over the not drug control) of treated cells was determined and then used for a calculation of the average cumulative cell survival (%, ACS: the sum of cell survival (%) per combination divided by the number of cell lines tested). ACS<30% was used to separate the effective from the not-effective combinations.

Biu87 = experiment: MTT cell survival / IC50, Biu87 cells; conditions: for Cell survival (%) / Single drug 4X Cell Survival (%): Biu87; for Cell survival (%): Table S3, ng/ml: Pi 40, Pa 160, EH 250, Ci 1500, Mi 200, 1=Ci/Mi, 2=EH/Ci/Mi, 3=Pa/Ci/Mi, 4=Pi/Ci/Mi; for Single drug 4X Cell Survival (%): ng/ml: EH 1000, Ci 6000, Mi 800, Pi 160, Pa 640, Ge 20, EH/Ci/Mi regimen; for Cell survival 72 hours / ACS (%): Biu87 cells; for Cell survival 72 hours: Table 4 (A); for ACS (%): Table 4 (B)
Protocol: as §1, §2, §3

ER Stress pathway = experiment: Cignal Finder dual-luciferase pathway reporter, ER Stress; conditions: for Relative activity, ER Stress reporter: luc/Renluc relative to negative control reporter, single drug at 4 folds vs EH/Ci/Mi combination
Protocol: (§4) The pathway analysis was performed with Qiagen's Cignal Finder Pathway Reporter Array systems according to the manufacturer's instructions. The pathway-focused dual-luciferase reporter construct was a mixture of an inducible transcription factor responsive firefly luciferase reporter and constitutively expressing renilla construct. Transcriptional response element (TRE) sequence response elements to each specific transcriptional factor triggered by the different signaling pathways are positioned before the TATA box of firefly luciferase reporter gene. The extent of activity of the reporter reflects the level of activity of the particular signaling pathway. CMV controlled renilla expression vector is co-transfected into the cell as an internal control. Non-inducible reporter construct that lacks the transcriptional factor binding sequence and could not be induced by any transcription factors is used as a negative control. Cells transfected with CMV directed firefly luciferase reporter gene serve as a positive control. Briefly, cells seeded in 6-well plates were transfected with Cignal finder pathway arrays according to the manufacturer's instructions (Qiagen). Then cells were seeded onto 96-well plates. Ci (6000 ng/mL), Mi (800 ng/mL), or EH (1000 ng/mL) and Ci/Mi/EH combination (Ci, 1500 ng/mL, Mi, 800 ng/mL and EH, 1000 ng/m L) were then added to the cells 24 h post-transfection. After 6 h of incubation with the different drugs at 37° C., cells were lysed and a dual luciferase assay (for firefly and renilla luciferase) was performed using a PromegaGloMax 20/20 illuminometer. The firefly luciferase activities were normalized over the renilla luciferase activities after background activity determined by luciferase activities of negative controls was subtracted. A triple test of cell survival under these drug doses was also performed by MTT assay following 18 h incubation at 37° C. […]

Heat Shock pathway = experiment: Cignal Finder dual-luciferase pathway reporter, Heat Shock; parameters: key to Relative activity, Heat Shock reporter: firefly/renilla ratio, background (negative control) subtracted; conditions: for Relative activity, Heat Shock reporter: luc/Renluc relative to negative control reporter, single drug at 4 folds vs EH/Ci/Mi combination
Protocol: as §4, with “Ci (6000 ng/mL), Mi (800 ng/mL), or EH (1000 ng/mL) and Ci/Mi/EH combination (Ci, 1500 ng/mL, Mi, 800 ng/mL and EH, 1000 ng/m L) were then added to the cells 24 h post-transfection.” left out

[1] = tested on: Cell Cycle/pRb-E2F pathway; experiment: Cignal Finder dual-luciferase pathway reporter, Cell Cycle/pRb-E2F; parameters: key to Relative activity, Cell Cycle/pRb-E2F reporter: firefly/renilla ratio, background (negative control) subtracted; conditions: for Relative activity, Cell Cycle/pRb-E2F reporter: luc/Renluc relative to negative control reporter, single drug at 4 folds vs EH/Ci/Mi combination
Protocol: as §4

N.N.[Cl][Pt][Cl] [Ci, (SP-4-2)-diamminedichloroplatinum(II)]
Cell survival 72 hours (H-bc): 1.61%
ACS (%) (H-bc): 1.61%
Cell survival (%) (H-bc): 41.98%
Single drug 4X Cell Survival (%) (H-bc): 1.61%
Cell survival (%) (Biu87): 20.94%
Single drug 4X Cell Survival (%) (Biu87): 12.93%
Cell survival 72 hours (Biu87): 12.93%
ACS (%) (Biu87): 12.93%
relative drug trigged pathway activity over the no-drug level, ER Stress (ER Stress pathway; 5637 cells): 1.82 fold
Relative activity, ER Stress reporter (ER Stress pathway; 5637 cells): 47.45
digitalized pathway activity, ER Stress (ER Stress pathway; Biu87 cells): 0 (null (0) if neither of the above holds)
relative drug trigged pathway activity over the no-drug level, ER Stress (ER Stress pathway; Biu87 cells): 0.83 fold
Relative activity, ER Stress reporter (ER Stress pathway; Biu87 cells): 18.10
digitalized pathway activity, ER Stress (ER Stress pathway; H-bc cells): 0 (null (0) if neither of the above holds)
relative drug trigged pathway activity over the no-drug level, ER Stress (ER Stress pathway; H-bc cells): 0.82 fold
Relative activity, ER Stress reporter (ER Stress pathway; H-bc cells): 101.61
digitalized pathway activity, ER Stress (ER Stress pathway; SV-HUC-1 cells): 0 (null (0) if neither of the above holds)
relative drug trigged pathway activity over the no-drug level, ER Stress (ER Stress pathway; SV-HUC-1 cells): 1.12 fold
Relative activity, ER Stress reporter (ER Stress pathway; SV-HUC-1 cells): 115.00
digitalized pathway activity, ER Stress (ER Stress pathway; UM-UC-3 cells): 0 (null (0) if neither of the above holds)
Relative activity, ER Stress reporter (ER Stress pathway; UM-UC-3 cells): 67.50
relative drug trigged pathway activity over the no-drug level, ER Stress (ER Stress pathway; Um-Uc-3 cells): 0.83 fold
digitalized pathway activity, Heat Shock (Heat Shock pathway; 5637 cells): 0 (null (0) if neither of the above holds)
relative drug trigged pathway activity over the no-drug level, Heat Shock (Heat Shock pathway; 5637 cells): 0.65 fold
Relative activity, Heat Shock reporter (Heat Shock pathway; 5637 cells): 9.18
relative drug trigged pathway activity over the no-drug level, Heat Shock (Heat Shock pathway; Biu87 cells): 1.52 fold
Relative activity, Heat Shock reporter (Heat Shock pathway; Biu87 cells): 2.87
digitalized pathway activity, Heat Shock (Heat Shock pathway; H-bc cells): 0 (null (0) if neither of the above holds)
relative drug trigged pathway activity over the no-drug level, Heat Shock (Heat Shock pathway; H-bc cells): 1.19 fold
Relative activity, Heat Shock reporter (Heat Shock pathway; H-bc cells): 16.31
digitalized pathway activity, Heat Shock (Heat Shock pathway; SV-HUC-1 cells): 0 (null (0) if neither of the above holds)
relative drug trigged pathway activity over the no-drug level, Heat Shock (Heat Shock pathway; SV-HUC-1 cells): 0.93 fold
Relative activity, Heat Shock reporter (Heat Shock pathway; SV-HUC-1 cells): 36.80
digitalized pathway activity, Heat Shock (Heat Shock pathway; UM-UC-3 cells): 0 (null (0) if neither of the above holds)
Relative activity, Heat Shock reporter (Heat Shock pathway; UM-UC-3 cells): 3.42
relative drug trigged pathway activity over the no-drug level, Heat Shock (Heat Shock pathway; Um-Uc-3 cells): 0.79 fold
relative drug trigged pathway activity over the no-drug level, Cell Cycle/pRb-E2F ([1]; 5637 cells): 1.95 fold
Relative activity, Cell Cycle/pRb-E2F reporter ([1]; 5637 cells): 1.77
digitalized pathway activity, Cell Cycle/pRb-E2F ([1]; Biu87 cells): 0 (null (0) if neither of the above holds)
relative drug trigged pathway activity over the no-drug level, Cell Cycle/pRb-E2F ([1]; Biu87 cells): 0.55 fold
Relative activity, Cell Cycle/pRb-E2F reporter ([1]; Biu87 cells): 0.31
digitalized pathway activity, Cell Cycle/pRb-E2F ([1]; H-bc cells): 0 (null (0) if neither of the above holds)
relative drug trigged pathway activity over the no-drug level, Cell Cycle/pRb-E2F ([1]; H-bc cells): 0.51 fold
Relative activity, Cell Cycle/pRb-E2F reporter ([1]; H-bc cells): 5.86
relative drug trigged pathway activity over the no-drug level, Cell Cycle/pRb-E2F ([1]; SV-HUC-1 cells): 1.71 fold
Relative activity, Cell Cycle/pRb-E2F reporter ([1]; SV-HUC-1 cells): 8.40
Relative activity, Cell Cycle/pRb-E2F reporter ([1]; UM-UC-3 cells): 2.29
relative drug trigged pathway activity over the no-drug level, Cell Cycle/pRb-E2F ([1]; Um-Uc-3 cells): 0.39 fold

COc1cccc2c1C(=O)c1c(O)c3c(c(O)c1C2=O)C[C@@](O)(C(=O)CO)C[C@@H]3[C@@H]1C[C@H](N)[C@@H](O)[C@H](C)O1 [EH, (8R,10S)-10-((2S,4S,5R,6S)-4-amino-5-hydroxy-6-methyltetrahydro-2H-pyran-2-yl)-6,8,11-trihydroxy-8-(2-hydroxyacetyl)-1-methoxy-7,8,9,10-tetrahydrotetracene-5,12-dione]
Cell survival 72 hours (H-bc): 2.60%
ACS (%) (H-bc): 2.60%
Cell survival (%) (H-bc): 61.03%
Single drug 4X Cell Survival (%) (H-bc): 2.6%
Cell survival (%) (Biu87): 38.68%
Single drug 4X Cell Survival (%) (Biu87): 23.24%
Cell survival 72 hours (Biu87): 23.24%
ACS (%) (Biu87): 23.24%
relative drug trigged pathway activity over the no-drug level, ER Stress (ER Stress pathway; 5637 cells): 3.26 fold
Relative activity, ER Stress reporter (ER Stress pathway; 5637 cells): 84.76
relative drug trigged pathway activity over the no-drug level, ER Stress (ER Stress pathway; Biu87 cells): 1.66 fold
Relative activity, ER Stress reporter (ER Stress pathway; Biu87 cells): 36.36
digitalized pathway activity, ER Stress (ER Stress pathway; H-bc cells): 0 (null (0) if neither of the above holds)
relative drug trigged pathway activity over the no-drug level, ER Stress (ER Stress pathway; H-bc cells): 1.38 fold
Relative activity, ER Stress reporter (ER Stress pathway; H-bc cells): 28.61
relative drug trigged pathway activity over the no-drug level, ER Stress (ER Stress pathway; SV-HUC-1 cells): 2.93 fold
Relative activity, ER Stress reporter (ER Stress pathway; SV-HUC-1 cells): 300.00
digitalized pathway activity, ER Stress (ER Stress pathway; UM-UC-3 cells): 0 (null (0) if neither of the above holds)
Relative activity, ER Stress reporter (ER Stress pathway; UM-UC-3 cells): 120.98
relative drug trigged pathway activity over the no-drug level, ER Stress (ER Stress pathway; Um-Uc-3 cells): 1.48 fold
digitalized pathway activity, Heat Shock (Heat Shock pathway; 5637 cells): 0 (null (0) if neither of the above holds)
relative drug trigged pathway activity over the no-drug level, Heat Shock (Heat Shock pathway; 5637 cells): 1.04 fold
Relative activity, Heat Shock reporter (Heat Shock pathway; 5637 cells): 14.60
digitalized pathway activity, Heat Shock (Heat Shock pathway; Biu87 cells): 0 (null (0) if neither of the above holds)
relative drug trigged pathway activity over the no-drug level, Heat Shock (Heat Shock pathway; Biu87 cells): 1.06 fold
Relative activity, Heat Shock reporter (Heat Shock pathway; Biu87 cells): 2.01
digitalized pathway activity, Heat Shock (Heat Shock pathway; H-bc cells): 0 (null (0) if neither of the above holds)
relative drug trigged pathway activity over the no-drug level, Heat Shock (Heat Shock pathway; H-bc cells): 0.86 fold
Relative activity, Heat Shock reporter (Heat Shock pathway; H-bc cells): 3.13
digitalized pathway activity, Heat Shock (Heat Shock pathway; SV-HUC-1 cells): 0 (null (0) if neither of the above holds)
relative drug trigged pathway activity over the no-drug level, Heat Shock (Heat Shock pathway; SV-HUC-1 cells): 0.91 fold
Relative activity, Heat Shock reporter (Heat Shock pathway; SV-HUC-1 cells): 36.00
digitalized pathway activity, Heat Shock (Heat Shock pathway; UM-UC-3 cells): 0 (null (0) if neither of the above holds)
Relative activity, Heat Shock reporter (Heat Shock pathway; UM-UC-3 cells): 2.93
relative drug trigged pathway activity over the no-drug level, Heat Shock (Heat Shock pathway; Um-Uc-3 cells): 0.67 fold
relative drug trigged pathway activity over the no-drug level, Cell Cycle/pRb-E2F ([1]; 5637 cells): 5.15 fold
Relative activity, Cell Cycle/pRb-E2F reporter ([1]; 5637 cells): 4.67
relative drug trigged pathway activity over the no-drug level, Cell Cycle/pRb-E2F ([1]; Biu87 cells): 3.95 fold
Relative activity, Cell Cycle/pRb-E2F reporter ([1]; Biu87 cells): 2.24
digitalized pathway activity, Cell Cycle/pRb-E2F ([1]; H-bc cells): 0 (null (0) if neither of the above holds)
relative drug trigged pathway activity over the no-drug level, Cell Cycle/pRb-E2F ([1]; H-bc cells): 1.47 fold
Relative activity, Cell Cycle/pRb-E2F reporter ([1]; H-bc cells): 4.44
relative drug trigged pathway activity over the no-drug level, Cell Cycle/pRb-E2F ([1]; SV-HUC-1 cells): 2.45 fold
Relative activity, Cell Cycle/pRb-E2F reporter ([1]; SV-HUC-1 cells): 12.00
Relative activity, Cell Cycle/pRb-E2F reporter ([1]; UM-UC-3 cells): 17.25
relative drug trigged pathway activity over the no-drug level, Cell Cycle/pRb-E2F ([1]; Um-Uc-3 cells): 2.91 fold
